The structures appear in SMILES notation.

One may read the melting point as the temperature of the solid-liquid transition.

`CC(C)(O)CC[C@H](C[C@H](O)[C@H](Cc1ccc(F)c(F)c1)NC(=O)c1cnc2ccccc2n1)C(N)=O` [Example 330, Quinoxaline-2-carboxylic acid [4(R)-carbamoyl-1(S)-(3,4-difluoro-benzyl)-2(S),7-dihydroxy-7-methyl-octyl]-amide] displayed a melting point of 110 to 120 °C. The figure for `CC(C)(O)CC[C@H](C[C@H](O)[C@H](Cc1ccc2ccccc2c1)NC(=O)c1cnc2ccccc2n1)C(N)=O` [Example 333, Quinoxaline-2-carboxylic acid (4(R)-carbamoyl-2(S),7-dihydroxy-7-methyl-1(S)-naphthalen-2-ylmethyl-octyl)-amide] is 104 to 106 °C. The figure for `NC(=O)C(Cc1ccc(O)cc1)CC(O)C(Cc1ccccc1)NC(=O)c1cnc2ccccc2n1` (stereo not shown) [Example 336, Quinoxaline-2-carboxylic acid [1-benzyl-4-carbamoyl-2-hydroxy-5-(4-hydroxy-phenyl)-pentyl]-amide] is 190.5 to 191.5 °C; for `CC(C)(O)CC[C@H](C[C@H](O)[C@H](Cc1ccc(F)c(F)c1)NC(=O)c1cnc2ccccc2n1)C(=O)NO` [Example 329, Quinoxaline-2-carboxylic acid [1(S)-(3,4-difluoro-benzyl)-2(S),7-dihydroxy-4(R)-hydroxycarbamoyl-7-methyl-octyl]-amide] it is 150 to 153 °C; for `CC(C)(O)CC[C@H](C[C@H](O)[C@H](Cc1cccc2ccccc12)NC(=O)c1cnc2ccccc2n1)C(N)=O` [Example 331, Quinoxaline-2-carboxylic acid (4(R)-carbamoyl-2(S),7-dihydroxy-7-methyl-1(S)-naphthalen-1-ylmethyl-octyl)-amide] it is 155 to 158 °C. The result for `CC(C)(O)CC[C@H](C[C@H](O)[C@H](Cc1cccc(F)c1)NC(=O)c1cnc2c(F)c(F)c(F)cc2c1)C(N)=O` [Example 332, 6,7,8-Trifluoro-quinoline-3-carboxylic acid [4(R)-carbamoyl-1(S)-(3-fluoro-benzyl)-2(S),7-dihydroxy-7-methyl-octyl]-amide] reads 183 to 185 °C; that for `CC(C)(O)CC[C@H](C[C@H](O)[C@H](Cc1ccccc1F)NC(=O)c1cnc2ccccc2n1)C(N)=O` [Example 328, Quinoxaline-2-carboxylic acid [4(R)-carbamoyl-1(S)-(2-fluoro-benzyl)-2(S),7-dihydroxy-7-methyl-octyl]-amide], 147 to 148 °C; that for `CC(C)(O)CC[C@H](C[C@H](O)[C@H](Cc1ccccc1F)NC(=O)c1cnc2ccccc2n1)C(=O)NO` [Example 326, Quinoxaline-2-carboxylic acid [1(S)-(2-fluoro-benzyl)-2(S),7-dihydroxy4(R)-hydroxycarbamoyl-7-methyl-octyl]-amide], 130 to 131 °C. The molecule `CC(C)(O)CC[C@H](C[C@H](O)[C@H](Cc1csc2ccccc12)NC(=O)c1cnc2ccccc2n1)C(N)=O` [Example 335, Quinoxaline-2-carboxylic acid (1(S)-benzo[b]thiophen-3-ylmethyl-4(R)-carbamoyl-2(S),7-dihydroxy-7-methyl-octyl)-amide] registered a melting point of 163 to 164 °C. In turn, `CC(C)(O)CC[C@H](C[C@H](O)[C@H](Cc1cc(F)cc(F)c1)NC(=O)c1cnc2ccccc2n1)C(=O)NO` [Example 320, Quinoxaline-2-carboxylic acid [1(S)-(3,5-difluoro-benzyl)-2(S),7-dihydroxy-4(R)-hydroxycarbamoyl-7-methyl-octyl]-amide] gave a melting point of 98 to 100 °C. The molecule `CC(C)(O)CC[C@H](C[C@H](O)[C@H](Cc1cccs1)NC(=O)c1cnc2ccccc2n1)C(N)=O` [Example 327, Quinoxaline-2-carboxylic acid (4(R)-carbamoyl-2(S),7-dihydroxy-7-methyl-1(S)-thiophen-2-ylmethyl-octyl)-amide] came in with a melting point of 158 to 159 °C. In turn, `CC(C)(O)CC[C@H](C[C@H](O)[C@H](Cc1cc(F)cc(F)c1)NC(=O)c1cnc2ccccc2n1)C(N)=O` [Example 315, Quinoxaline-2-carboxylic acid [4(R)-carbamoyl-1(S)-(3,5-difluoro-benzyl)-2(S),7-dihydroxy-7-methyl-octyl]-amide] gave a melting point of 162 to 163 °C.

The molecule `CC(C)(O)CC[C@H](C[C@H](O)[C@H](Cc1ccccc1)NC(=O)c1cnccc1C(F)(F)F)C(N)=O` [Example 323, N-(1(S)-Benzyl-4(R)-carbamoyl-2(S),7-dihydroxy-7-methyl-octyl)-4-trifluoromethyl-nicotinamide] displayed a melting point of 131 to 135 °C.

The values are drawn from US6403587B1, “Heteroaryl-hexanoic acid amide derivatives, their preparation and their use as selective inhibitors of MIP-1-α binding to its CCR 1 receptor” (Pfizer Inc., priority 1997, dated 2002).
